Test results published in patent US20240246963A1, “BIFUNCTIONAL COMPOUNDS AND PHARMACEUTICAL USES THEREOF” (RISEN (SUZHOU) PHARMA TECH CO., LTD., priority 2022, published 2024).

Biological target: T1, RAS G12D protein (Homo sapiens, UniProt P01116, G12D)
T1 construct: host or cells: Aspc-1 (AsPC-1) cells
Experiment: Protein degradation study (western blot) in Aspc-1 cells
Assay type: cell-based
Details: for DC50: half-maximum degradation concentration on G12D in Aspc-1 cells
Protocol: Aspc-1 (Cobioer, CBP60546) cells in exponential growth phase were inoculated on a 6-well cell culture plate (Corning, 3516) at density of 1E6/well; and cells in the plate were cultured in a 37° C. incubator containing 5%-carbon dioxide. The next day, test compounds were dissolved in DMSO (Sigma, RNBF5902) for the preparation of a 10-mM concentration stock solution. The stock solution was diluted with complete medium (RPMI-1640 supplemented with 10% fetal bovine serum, 1% penicillin-streptomycin), yielding working solutions of various concentrations. The plate, after the addition of compounds, was placed in a 5% carbon dioxide incubator, and incubated at 37° C. for 24 hours (final DMSO concentration was 0.1%). The plate was then removed from the incubator, and the cells were washed twice with precooled PBS (Gibco, 14190250), followed by addition of 80 μL RIPA (CST, 9806S) lysis buffer (containing protease inhibitor (Invitrogen™, AM2696)) to each well. The adherent cells were scraped off with a cell scraper, and the cell lysate was transferred to a 1.5 mL centrifuge tube followed with a 30-minute incubation on ice. The lysate was then clarified with centrifugation at 12000 rpm for 10 min at 4° C. The supernatant was transferred into a new 1.5 mL centrifuge tube, and protein concentration was measured with BCA protein detection kit (Thermo Fisher, 23225). G12D protein level was assessed by western blot. A mixture of cell lysate (40 μL) and loading buffer (10 μL, 5×SDS (Beyotime, P0015L)) was denatured in a water-bath at 95° C. for 10 min. The denatured protein sample, at 30 μg/well, was loaded into a corresponding well of a 4-20% Bis-Tris gel (Kingsley, M00656). Protein samples were initially electrophoresed at 80 V for 30 minutes, followed by 120 V for 40 minutes, until the bromophenol blue strip ran to an appropriate position. After electrophoresis, iBlot2 (Life Technologies, IB21001) was used to transfer the separated samples onto PVDF film. The PVDF membrane was washed with double-distilled water and then blocked in TBST (Thermo Scientific, 28360) buffer containing 5% non-fat milk, for 2 hours. Blocked membrane was rinsed with tris-buffered saline tween-2 (Thermo Scientific, 28360, TBST) three times, 10 minutes each. Membrane was then incubated with 1:1000 diluted RAS Gi2D primary antibody (CST, cat #14429S) overnight at 4° C. Membrane was rinsed in a way described previously followed by 1 hour incubation of secondary antibody at room temperature. After washing the film for three times with TBST, ECL color developing solution was applied, and image was captured with Biorad Chemi Doc gel imager. The band gray value was quantified (Image Lab), and protein degradation level was calculated according to the following formulas:
Level of RAS G12D protein expression=(RAS G12D−compound/β-Actin)−compound/(RAS G12D−DMSO/β-Actin−DMSO)
Level of degradation (%)=(1−Rate of RAS G12D protein expression)×100
Symbols of −, +, ++, +++, ++++, +++++ indicate that the degradation level of Ras protein induced by test compounds was 10% or less, 10 to 30%, 30 to 60%, 60 to 70%, 70 to 75%, and greater than 75%, respectively. “NT” indicates not tested.
“NT” indicates not tested.

[1] = ASPC1, 24 h, 0.005 μM compound, Aspc-1 cells, 24 hours, read-out: Rate of protein degradation (%)
[2] = ASPC1, 24 h, 0.05 μM compound, Aspc-1 cells, 24 hours, read-out: Rate of protein degradation (%)

T1 sequence (P01116 1-188 isoform P01116-2 G12D): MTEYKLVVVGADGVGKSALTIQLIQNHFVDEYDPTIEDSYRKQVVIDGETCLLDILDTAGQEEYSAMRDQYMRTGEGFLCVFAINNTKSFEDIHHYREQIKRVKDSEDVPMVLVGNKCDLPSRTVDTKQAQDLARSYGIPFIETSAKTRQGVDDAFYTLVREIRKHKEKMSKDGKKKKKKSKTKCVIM

`CCc1c(F)ccc2cc(O)cc(-c3c(Cl)cc4c(N5CCC[C@]6(CCO6)C5)nc(OCC5(CN6CCC7(CC6)CC(N6CCC(c8cc9c(cc8F)c(N8CCC(=O)NC8=O)nn9C)CC6)C7)CC5)nc4c3F)c12` (atropisomer, axis not shown) [Compound 239] was tested, and the percent protein degradation at 0.005 µM [1] was 10 to 30% and the percent protein degradation at 0.05 µM [2] was ≤ 10%.

With `CCc1c(F)ccc2cc(O)cc(-c3c(Cl)cc4c(N5CCC[C@]6(CCO6)C5)nc(OCC5(CN6CCC7(CC6)CC(N6CCC(c8cc9c(cc8F)c(N8CCC(=O)NC8=O)nn9C)CC6)C7)CC5)nc4c3F)c12` (atropisomer, axis not shown) [Compound 240] the “Rate of protein degradation (%)” value (0.005 μM compound, Aspc-1 cells, 24 hours) was “+ (10 to 30%)” and the “Rate of protein degradation (%)” value (0.05 μM compound, Aspc-1 cells, 24 hours) was “+ (10 to 30%)”.

For `CCc1c(F)ccc2cc(O)cc(-c3ncc4c(N5CCC[C@@](C)(O)C5)nc(OC5CCN(CC(=O)N6CCC7(CC6)CC(N6CCC(c8ccc9c(C%10CCC(=O)NC%10=O)nn(C)c9c8)CC6)C7)CC5)nc4c3F)c12` (some centres unmarked) [Compound 194], the DC50 was > 1 µM.

Work on `CCc1c(F)ccc2cc(O)cc(-c3ncc4c(N5CCC[C@@](C)(O)C5)nc(OCC5(CN6CCC7(CC6)CC(N6CC=C(c8ccc9c(c8)CN(C8CCC(=O)NC8=O)C9=O)CC6)C7)CC5)nc4c3F)c12` (some centres unmarked) [Compound 196] yielded a DC50 of 0.001 to 0.01 µM.

For `CCc1c(F)ccc2cc(O)cc(-c3ncc4c(N5CCC[C@@](C)(O)C5)nc(OCC5(CN6CCC7(CC6)CC(N6CCC(c8ccc(NC9CCC(=O)NC9=O)cc8F)CC6)C7)CC5)nc4c3F)c12` (some centres unmarked) [Compound 197], the percent protein degradation at 0.001 µM (ASPC1, 24 h, 1 nM compound, Aspc-1 cells, 24 hours, read-out: Rate of protein degradation (%)) was 10 to 30%, the percent protein degradation at 0.005 µM [1] was 30 to 60% and the percent protein degradation at 0.05 µM [2] was 60 to 70%.

`C#Cc1c(F)ccc2cccc(-c3ncc4c(N5CCC[C@](C)(O)C5)nc(OCC5(CN6CCC7(CC6)CC(N6CCC(c8ccc9c%10c(cccc8%10)C(=O)N9C8CCC(=O)NC8=O)CC6)C7)CC5)nc4c3F)c12` (some centres unmarked) [Compound 198] gave a percent protein degradation at 0.005 µM [1] of 30 to 60% and a percent protein degradation at 0.05 µM [2] of 30 to 60%.

Compound `CCc1c(F)ccc2cccc(-c3ncc4c(N5CCC[C@](C)(O)C5)nc(OCC5(CN6CCC7(CC6)CC(N6CCC(c8ccc9c%10c(cccc8%10)C(=O)N9C8CCC(=O)NC8=O)CC6)C7)CC5)nc4c3F)c12` (some centres unmarked) [Compound 199] has a percent protein degradation at 0.005 µM [1] of 30 to 60% and a percent protein degradation at 0.05 µM [2] of 30 to 60%.

`C#Cc1c(F)ccc2cc(O)cc(-c3ncc4c(N5CC=CCC5)nc(OCC5(CN6CCC7(CC6)CC(N6CCC(c8cc9c(cc8F)c(N8CCC(=O)NC8=O)nn9C)CC6)C7)CC5)nc4c3F)c12` [Compound 203] was tested, and the percent protein degradation at 0.005 µM [1] was 10 to 30%.

Work on `C#Cc1c(F)ccc2cc(O)cc(-c3ncc4c(N5CCC=CCC5)nc(OCC5(CN6CCC7(CC6)CC(N6CCC(c8cc9c(cc8F)c(N8CCC(=O)NC8=O)nn9C)CC6)C7)CC5)nc4c3F)c12` [Compound 206] yielded a percent protein degradation at 0.005 µM [1] of 10 to 30% and a percent protein degradation at 0.05 µM [2] of 10 to 30%.

With `CCc1c(F)ccc2cc(O)cc(-c3ncc4c(N5CCC[C@]6(CCO6)C5)nc(OCC5(CN6CCC7(CC6)CC(N6CCC(c8ccc(C(=O)NC9CCC(=O)NC9=O)c(F)c8)CC6)C7)CC5)nc4c3F)c12` (some centres unmarked) [Compound 209] the percent protein degradation at 0.005 µM [1] was ≤ 10% and the percent protein degradation at 0.05 µM [2] was ≤ 10%.

For `CCc1c(F)ccc2cc(O)cc(-c3ncc4c(N5CCC[C@]6(CCO6)C5)nc(OCC5(CN6CCC(c7ccc8c(C9CCC(=O)NC9=O)nn(C)c8c7)CC6)CC5)nc4c3F)c12` (some centres unmarked) [Compound 212], the percent protein degradation at 0.005 µM [1] was ≤ 10% and the percent protein degradation at 0.05 µM [2] was 10 to 30%.

`CCc1c(F)ccc2cc(O)cc(-c3ncc4c(N5CCC[C@]6(CCO6)C5)nc(OCC5(CN6CCC(CN7CCC(c8ccc9c(C%10CCC(=O)NC%10=O)nn(C)c9c8)CC7)C6)CC5)nc4c3F)c12` (some centres unmarked) [Compound 215] showed a percent protein degradation at 0.005 µM [1] of 10 to 30% and a percent protein degradation at 0.05 µM [2] of 30 to 60%.

`CCc1c(F)ccc2cc(O)cc(-c3ncc4c(N5CCC[C@]6(CCO6)C5)nc(OCC5(CN6CCC(N7CCC(c8ccc9c(N%10CCC(=O)NC%10=O)nn(C)c9c8)CC7)CC6)CC5)nc4c3F)c12` [Compound 218] gave a percent protein degradation at 0.005 µM [1] of 10 to 30% and a percent protein degradation at 0.05 µM [2] of 30 to 60%.

`CCc1c(F)ccc2cc(O)cc(-c3ncc4c(N5CCC[C@]6(CCO6)C5)nc(OCC5(CN6CCC7(CC(N8CCC(c9cc%10c(cc9F)c(N9CCC(=O)NC9=O)nn%10C)CC8)C7)C6)CC5)nc4c3F)c12` (some centres unmarked) [Compound 219] showed a percent protein degradation at 0.005 µM [1] of 30 to 60% and a percent protein degradation at 0.05 µM [2] of 60 to 70%.

`CCc1c(F)ccc2cc(O)cc(-c3ncc4c(N5CCC[C@]6(CCO6)C5)nc(OCC5(CN6CCC(C(=O)N7CCC(c8ccc9c(C%10CCC(=O)NC%10=O)nn(C)c9c8)CC7)CC6)CC5)nc4c3F)c12` (some centres unmarked) [Compound 220] was tested, and the percent protein degradation at 0.005 µM [1] was 30 to 60%, the percent protein degradation at 0.05 µM [2] was 30 to 60% and the Dmax (ASPC1, G12D in Aspc-1 cells) was 55%. It also gave a DC50 of 0.001 to 0.01 µM.

With `CCc1c(F)ccc2cc(O)cc(-c3ncc4c(N5CCC[C@]6(CCO6)C5)nc(OCC5(CN6CCC7(CC(c8cc9c(cc8F)c(N8CCC(=O)NC8=O)nn9C)C7)C6)CC5)nc4c3F)c12` (some centres unmarked) [Compound 222] the percent protein degradation at 0.005 µM [1] was ≤ 10% and the percent protein degradation at 0.05 µM [2] was ≤ 10%.

In the case of `CCc1c(F)ccc2cc(O)cc(-c3ncc4c(N5CCC[C@]6(CCO6)C5)nc(OCC5(CN6CCC(C(=O)N7CCC(c8cc9c(cc8F)c(N8CCC(=O)NC8=O)nn9C)CC7)CC6)CC5)nc4c3F)c12` [Compound 224], the percent protein degradation at 0.005 µM [1] is reported as 10 to 30% and the percent protein degradation at 0.05 µM [2] is reported as 10 to 30%.

`CCc1c(F)ccc2cc(O)cc(-c3ncc4c(N5CCC[C@]6(CCO6)C5)nc(OCC5(CN6CCC(N7CCC(c8cc9c(cc8F)c(N8CCC(=O)NC8=O)nn9C)CC7)CC6)CC5)nc4c3F)c12` [Compound 225] was tested, and the percent protein degradation at 0.005 µM [1] was 30 to 60% and the percent protein degradation at 0.05 µM [2] was 30 to 60%.

For `CCc1c(F)ccc2cc(O)cc(-c3ncc4c(N5CCC[C@]6(CCO6)C5)nc(OCC5(CN6CCC(N7CCC(c8cc9c(cc8F)c(N8CCC(=O)NC8=O)nn9C)CC7)C6)CC5)nc4c3F)c12` (some centres unmarked) [Compound 226], the percent protein degradation at 0.005 µM [1] was 10 to 30% and the percent protein degradation at 0.05 µM [2] was 30 to 60%.

For `CCc1c(F)ccc2cc(O)cc(-c3ncc4c(N5CCC[C@]6(CCO6)C5)nc(OCC5(CN6CCC7(CC6)CC(N6CCC(c8cnn(C9CCC(=O)NC9=O)c(=O)c8)CC6)C7)CC5)nc4c3F)c12` (some centres unmarked) [Compound 227], the percent protein degradation at 0.005 µM [1] was ≤ 10% and the percent protein degradation at 0.05 µM [2] was 10 to 30%.

Work on `CCc1c(F)ccc2cc(O)cc(-c3ncc4c(N5CCC[C@]6(CCO6)C5)nc(OCC5(CN6CCC7(CC6)CC(N6CCC(c8ccc(NC9CCC(=O)NC9=O)nc8)CC6)C7)CC5)nc4c3F)c12` (some centres unmarked) [Compound 229] yielded a percent protein degradation at 0.005 µM [1] of 10 to 30% and a percent protein degradation at 0.05 µM [2] of 30 to 60%.

`CCc1c(F)ccc2cc(O)cc(-c3ncc4c(N5CCC[C@]6(CCO6)C5)nc(OCC5(CN6CCC7(CC6)CC(N6CCC(c8ccc(C9CCC(=O)NC9=O)cn8)CC6)C7)CC5)nc4c3F)c12` (some centres unmarked) [Compound 230] was tested, and the percent protein degradation at 0.005 µM [1] was ≤ 10% and the percent protein degradation at 0.05 µM [2] was ≤ 10%.

`CCc1c(F)ccc2cc(O)cc(-c3ncc4c(N5CCC[C@]6(CCO6)C5)nc(OCC5(CN6CCC7(CC6)CC(N6Cc8cc9c(cc8C6)C(=O)N(C6CCC(=O)NC6=O)C9=O)C7)CC5)nc4c3F)c12` (some centres unmarked) [Compound 231] showed a percent protein degradation at 0.005 µM [1] of 10 to 30% and a percent protein degradation at 0.05 µM [2] of 30 to 60%.

`CCc1c(F)ccc2cc(O)cc(-c3ccc4c(N5CCC[C@]6(CCO6)C5)nc(OCC5(CN6CCC7(CC6)CC(N6CCC(c8cc9c(cc8F)c(N8CCC(=O)NC8=O)nn9C)CC6)C7)CC5)nc4c3F)c12` [Compound 232] was tested, and the percent protein degradation at 0.005 µM [1] was 10 to 30% and the percent protein degradation at 0.05 µM [2] was 30 to 60%.

Compound `CCc1c(F)ccc2cc(O)cc(-c3ncc4c(N5CCC[C@]6(CCO6)C5)nc(OCC5(CN6CCC7(CCC(N8Cc9cc%10c(cc9C8)C(=O)N(C8CCC(=O)NC8=O)C%10=O)CC7)CC6)CC5)nc4c3F)c12` (some centres unmarked) [Compound 233] has a percent protein degradation at 0.005 µM [1] of 10 to 30% and a percent protein degradation at 0.05 µM [2] of 30 to 60%.
